According to ChEMBL document CHEMBL5247586, “Discovery of fusidic acid derivatives as novel STING inhibitors for treatment of sepsis” (Eur J Med Chem, 2022):
pIC50: −log10 of the molar value. Calls of active or inactive are those of the source. The calls are words filed in the database; no cut-off is given here.

Columns and labels:
Mus musculus [1] = experiment: (§1) Protective activity against LPS induced sepsis in BALB/c mouse model of acute liver injury assessed as improvement in swollen hepatocytes at 1.25 to 5 mg/kg, IG administered once a day for 3 days followed by LPS stimulation for 12 hrs starting from 2 hrs post last dose by hematoxylin and eosin staining based analysis; format: functional, organism-based; details: dose 1.25-5 mg/kg, time 86.0 hrs
Mus musculus [2] = experiment: Antiinflammatory activity in BALB/c mouse model of LPS induced sepsis assessed as inhibition of TNF-alpha production at 1.25 to 5 mg/kg, IG administered once a day for 3 days followed by LPS stimulation for 12 hrs starting from 2 hrs post last dose by qRT-PCR analysis; format: functional, organism-based; details: dose 1.25-5 mg/kg, time 86.0 hrs
Mus musculus [3] = experiment: Protective activity against LPS induced sepsis in BALB/c mouse model of acute liver injury assessed as reduction in ALT level in serum at 1.25 to 5 mg/kg, IG administered once a day for 3 days followed by LPS stimulation for 12 hrs starting from 2 hrs post last dose by ELISA; format: functional, organism-based; details: dose 1.25-5 mg/kg, time 86.0 hrs
Mus musculus [4] = experiment: Antiinflammatory activity in BALB/c mouse model of LPS induced sepsis assessed as inhibition of IFN-beta production at 1.25 to 5 mg/kg, IG administered once a day for 3 days followed by LPS stimulation for 12 hrs starting from 2 hrs post last dose by qRT-PCR analysis; format: functional, organism-based; details: dose 1.25-5 mg/kg, time 86.0 hrs
[5] = biological target: T1, Stimulator of interferon genes protein (Mus musculus) (UniProt Q3TBT3); experiment: Binding affinity to STING in mouse RAW264.7 cells assessed as thermal stabilization at 40 to 61 degree C at 20 uM incubated for 8 hrs by cellular thermal shift assay; format: cell-based
T1 sequence (whole entry): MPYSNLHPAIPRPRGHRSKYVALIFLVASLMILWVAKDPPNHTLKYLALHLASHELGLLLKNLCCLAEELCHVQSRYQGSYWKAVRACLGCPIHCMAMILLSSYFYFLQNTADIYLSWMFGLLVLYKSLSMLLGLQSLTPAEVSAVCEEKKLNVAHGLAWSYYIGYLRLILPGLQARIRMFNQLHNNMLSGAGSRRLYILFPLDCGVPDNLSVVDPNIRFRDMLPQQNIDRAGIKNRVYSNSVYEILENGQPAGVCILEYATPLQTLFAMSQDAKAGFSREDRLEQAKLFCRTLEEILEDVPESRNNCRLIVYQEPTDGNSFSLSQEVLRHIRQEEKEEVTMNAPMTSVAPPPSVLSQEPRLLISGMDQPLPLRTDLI

Mus musculus [6] = experiment: as §1, with “reduction” for “improvement”, “necrotic” for “swollen”; format: functional, organism-based; details: dose 1.25-5 mg/kg, time 86.0 hrs
RAW264.7 [7] = experiment: Anti inflammatory activity in LPS-induced mouse RAW264.7 cells assessed as inhibition of NO production at 2.5 uM preincubated with compound for 2 hrs followed by LPS stimulation and measured after 24 hrs by griess reagent based assay relative to control; format: functional; details: time 26 hrs
Mus musculus [8] = experiment: Protective activity against LPS induced sepsis in BALB/c mouse model of acute liver injury assessed as reduction in AST level in serum at 1.25 to 5 mg/kg, IG administered once a day for 3 days followed by LPS stimulation for 12 hrs starting from 2 hrs post last dose by ELISA; format: functional, organism-based; details: dose 1.25-5 mg/kg, time 86.0 hrs
Mus musculus [9] = experiment: Protective activity against LPS induced sepsis in BALB/c mouse model of acute liver injury assessed as reduction in ALP level in serum at 1.25 to 5 mg/kg, IG administered once a day for 3 days followed by LPS stimulation for 12 hrs starting from 2 hrs post last dose by ELISA; format: functional, organism-based; details: dose 1.25-5 mg/kg, time 86.0 hrs
RAW264.7 [10] = experiment: Anti inflammatory activity in LPS-induced mouse RAW264.7 cells assessed as suppression of IFN- beta levels at 0.5 to 2 uM preincubated with compound for 2 hrs followed by LPS stimulation for 6 hrs by ELISA method; format: functional, cell-based; details: dose 0.5-2 µM, time 8.0 hrs
RAW264.7 [11] = experiment: Anti inflammatory activity in LPS-induced mouse RAW264.7 cells assessed as suppression of IL-6 levels at 0.5 to 2 uM preincubated with compound for 2 hrs followed by LPS stimulation for 6 hrs by ELISA method; format: functional, cell-based; details: dose 0.5-2 µM, time 8.0 hrs
[12] = Half life in Sprague-Dawley rat administered intragastrically; format: ADME; details: in vivo, po, route ig
[13] = MRT (0 to t) in Sprague-Dawley rat administered intragastrically; format: ADME; details: in vivo, po, route ig
[14] = Cytotoxicity against mouse RAW264.7 cells assessed as cell viability at 40 uM measured after 24 hrs by MTT assay relative to control; format: toxicity, cell-based; details: read-out: Activity
Mus musculus [15] = experiment: as §1, with “blurred boundaries in liver tissue” for “swollen hepatocytes”; format: functional, organism-based; details: dose 1.25-5 mg/kg, time 86.0 hrs
[16] = biological target: T1, Stimulator of interferon genes protein (Mus musculus); experiment: Binding affinity to STING in mouse RAW264.7 cells assessed as thermal stabilization at 46 degree C measured for 8 hrs by cellular thermal shift assay; format: cell-based; details: dose 0-20 µM
Mus musculus [17] = experiment: Anti-sepsis activity against BALB/c mouse model of LPS induced sepsis assessed as reduction in STING mRNA expression in liver at 1.25 to 5 mg/kg, IG administered once a day for 3 days followed by LPS stimulation for 12 hrs starting from 2 hrs post last dose by qRT-PCR analysis; format: functional, organism-based; details: dose 1.25-5 mg/kg, time 86.0 hrs
RAW264.7 [18] = experiment: Anti inflammatory activity in LPS-induced mouse RAW264.7 cells assessed as inhibition of NO production at 5 uM preincubated with compound for 2 hrs followed by LPS stimulation and measured after 24 hrs by griess reagent based assay relative to control; format: functional; details: time 26 hrs
RAW264.7 [19] = experiment: Anti inflammatory activity in LPS-induced mouse RAW264.7 cells assessed as inhibition of NO production preincubated with compound for 2 hrs followed by LPS stimulation and measured after 24 hrs by griess reagent based assay; format: functional, cell-based
[20] = biological target: T1, Stimulator of interferon genes protein (Mus musculus); experiment: In vivo inhibition of STING in BALB/c mouse model of LPS induced sepsis assessed as inhibition of upregulation of phosphorylated IkappaB protein expression at 1.25 to 5 mg/kg, IG administered once a day for 3 days followed by LPS stimulation for 12 hrs starting from 2 hrs post last dose by Western blot analysis; format: functional, organism-based; details: dose 1.25-5 mg/kg, time 86.0 hrs

Which Activity (Mus musculus [1]) does the source give for `C=CCONC(=O)CCSSCCC(=O)O[C@@H]1CC[C@@]2(C)[C@@H](CC[C@@]3(C)[C@H]2[C@H](O)C[C@H]2/C(=C(\CCC=C(C)C)C(=O)OCc4ccccc4)[C@@H](OC(C)=O)C[C@@]23C)[C@@H]1C` here?
Its Activity is “Active”.

What about the inhibition (Mus musculus [2]) of the same compound?
The inhibition was “Active”.

And the Activity (Mus musculus [3])?
Its Activity is “Active”.

What about the inhibition (Mus musculus [4]) of the same compound?
Its inhibition is “Active”.

What about the Activity [5] of the same compound?
Its Activity is “Active”.

What about the Activity (Mus musculus [6]) of the same compound?
Its Activity is “Active”.

And the inhibition at 2.5 µM (RAW264.7 [7])?
The inhibition at 2.5 µM was 69.3%.

And the Activity (Mus musculus [8])?
Its Activity is “Active”.

What about the Activity (Mus musculus [9]) of the same compound?
The Activity was “Active”.

And the Activity (RAW264.7 [10])?
Its Activity is “Active”.

And the Activity (RAW264.7 [11])?
The Activity was “Active”.

And the half-life [12]?
Its half-life is 66.6 min.

What about the MRT last [13] of the same compound?
Its MRT last is 59.4 min.

And the viability at 24 h, 40 µM [14]?
Its viability at 24 h, 40 µM is 91.1%.

What about the Activity (Mus musculus [15]) of the same compound?
The Activity was “Active”.

And the Activity [16]?
Its Activity is “Dose-Dependent Effect”.

What about the Activity (Mus musculus [17]) of the same compound?
Its Activity is “Active”.

And the inhibition at 5 µM (RAW264.7 [18])?
Its inhibition at 5 µM is 78.7%.

And the pIC50 (RAW264.7 [19])?
The pIC50 was 5.94.

And the inhibition [20]?
Its inhibition is “Active”.
